The values below come from ChEMBL document CHEMBL1137407, “Identification and optimization of anthranilic sulfonamides as novel, selective cholecystokinin-2 receptor antagonists” (J Med Chem, 2006).

Data set [1] is filed under the species Rattus norvegicus. In words: Plasma concentration in rat. It is filed as ADME, organism-based. Conditions: in vivo.
Data set [2] can be described thus: Stability in human liver microsome after 30 mins. It is filed as ADME. Conditions: liver microsomes, read-out: Stability.
The target of data set [3] is T1, Cholecystokinin receptor type A (Cavia porcellus) (UniProt Q63931).
T1 sequence (whole entry): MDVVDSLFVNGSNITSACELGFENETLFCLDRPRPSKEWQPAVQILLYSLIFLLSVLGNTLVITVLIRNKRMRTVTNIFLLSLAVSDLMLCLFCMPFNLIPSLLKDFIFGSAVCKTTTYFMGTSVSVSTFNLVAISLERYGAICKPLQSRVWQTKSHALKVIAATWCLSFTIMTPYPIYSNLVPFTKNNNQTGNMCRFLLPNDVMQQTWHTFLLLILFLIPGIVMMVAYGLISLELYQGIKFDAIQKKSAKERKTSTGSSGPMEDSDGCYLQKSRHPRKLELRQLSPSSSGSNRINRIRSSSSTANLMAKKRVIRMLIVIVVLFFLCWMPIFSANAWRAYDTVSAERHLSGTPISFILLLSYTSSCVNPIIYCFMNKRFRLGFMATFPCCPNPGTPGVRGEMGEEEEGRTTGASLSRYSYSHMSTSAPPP
Kind of data set: Antagonizing effect on CCK-8S-stimulated guinea pig gall bladder smooth muscle contraction by Schild analysis. It is filed as functional, tissue-based. Conditions: Muscle tissue.

The species entered for another data set is Cavia porcellus. Kind of data set: Antagonizing effect on penta gastrin-stimulated guinea pig gastric smooth muscle contraction by Schild analysis. It is filed as functional, Muscle tissue.
Data set [4] can be described thus: Stability in rat liver microsome after 30 mins. The data set is classed as ADME. Conditions: liver microsomes, read-out: Stability.
The nature of data set [5]: Clearance in Sprague-Dawley rat at 2 umol/kg, iv. Conditions: in vivo. The data set is classed as ADME, organism-based.
Data set [6] can be described thus: Half life in Sprague-Dawley rat at 2 umol/kg, iv. The data set is classed as ADME, organism-based. Conditions: in vivo.
The nature of data set [7]: Oral bioavailability in Sprague-Dawley rat at 2 umol/kg, po. It is filed as ADME, organism-based. Conditions: in vivo.
The nature of data set [8]: Clearance in Beagle dog at 2 umol/kg, iv. It is filed as ADME, organism-based, Canis lupus familiaris. Conditions: in vivo.
Data set [9] is described as follows: Half life in Beagle dog at 2 umol/kg, iv. The data set is classed as ADME, organism-based, Canis lupus familiaris. Conditions: in vivo.
A short description of data set [10]: Oral bioavailability in Beagle dog at 20 umol/kg, po. Conditions: in vivo. It is filed as ADME, organism-based, Canis lupus familiaris.
The subject of data set [11] is Rattus norvegicus. In words: Inhibition of pentagastrin-stimulated gastric acid secretion in iv dosed anesthetized rat measured as increase in pH. The data set is classed as functional, Stomach.
Data set [12] addresses T2, Cholecystokinin receptor type A (Homo sapiens, UniProt P32238).
T2 sequence (P32238 whole entry): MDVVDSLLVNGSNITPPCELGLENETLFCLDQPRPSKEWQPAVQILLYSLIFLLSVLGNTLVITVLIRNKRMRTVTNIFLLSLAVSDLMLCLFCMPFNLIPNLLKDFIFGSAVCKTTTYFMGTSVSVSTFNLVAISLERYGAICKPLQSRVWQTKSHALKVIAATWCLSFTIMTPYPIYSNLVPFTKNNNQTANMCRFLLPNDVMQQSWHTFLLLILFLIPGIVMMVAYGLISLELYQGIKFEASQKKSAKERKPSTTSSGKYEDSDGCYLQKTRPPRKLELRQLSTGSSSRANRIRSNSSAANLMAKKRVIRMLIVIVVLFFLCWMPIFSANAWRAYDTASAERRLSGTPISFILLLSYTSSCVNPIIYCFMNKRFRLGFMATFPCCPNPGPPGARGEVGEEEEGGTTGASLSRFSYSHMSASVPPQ
Conditions: read-out: Ki.
Description: Displacement of [125I]CCK-8S from human CCK1R

Data set [13] has as its target T3, Gastrin/cholecystokinin type B receptor (Homo sapiens, UniProt P32239).
T3 sequence (P32239 whole entry): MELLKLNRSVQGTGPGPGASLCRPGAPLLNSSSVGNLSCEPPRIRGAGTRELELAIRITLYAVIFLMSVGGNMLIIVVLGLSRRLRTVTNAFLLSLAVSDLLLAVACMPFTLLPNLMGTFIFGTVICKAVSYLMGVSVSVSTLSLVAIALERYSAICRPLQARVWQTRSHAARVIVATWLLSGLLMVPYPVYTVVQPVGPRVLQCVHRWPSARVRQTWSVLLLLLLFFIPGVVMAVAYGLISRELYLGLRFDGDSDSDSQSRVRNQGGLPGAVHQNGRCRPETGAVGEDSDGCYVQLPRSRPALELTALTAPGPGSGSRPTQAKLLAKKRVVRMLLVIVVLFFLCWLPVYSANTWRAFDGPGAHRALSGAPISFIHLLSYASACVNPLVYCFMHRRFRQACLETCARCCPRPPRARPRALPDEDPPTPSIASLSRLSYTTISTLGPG
Conditions: read-out: Log Ki (converted).
Description: Displacement of [125I]CCK-8S from human CCK2R

A short description of data set [14]: Partition coefficient, log D at pH 7.4. Conditions: octanol/water. The data set is classed as physicochemical.
Data set [15] can be described thus: Stability in human liver microsome after 15 mins. It is filed as ADME. Conditions: liver microsomes, read-out: Stability.
The nature of data set [16]: Stability in human liver S9 fraction after 15 mins. Conditions: read-out: Stability. It is filed as ADME.
Data set [17] can be described thus: Stability in human liver S9 fraction after 30 mins. Conditions: read-out: Stability. The data set is classed as ADME.
Data set [18] can be described thus: Stability in rat liver S9 fraction after 15 mins. It is filed as ADME. Conditions: read-out: Stability.
Data set [19] in a line: Stability in rat liver S9 fraction after 30 mins. It is filed as ADME. Conditions: read-out: Stability.
A short description of data set [20]: Stability in dog liver S9 fraction after 15 mins. The data set is classed as ADME, Canis lupus familiaris. Conditions: read-out: Stability.
Data set [21] in a line: Stability in dog liver S9 fraction after 30 mins. It is filed as ADME, Canis lupus familiaris. Conditions: read-out: Stability.
For data set [22], the system named is Caco-2. Kind of data set: Apparent permeability from basolateral to apical side of Caco-2 cells. It is filed as ADME, cell-based. Conditions: human.
The test system of data set [23] is Caco-2. Kind of data set: Apparent permeability from apical to basolateral side of Caco-2 cells. The data set is classed as ADME, cell-based. Conditions: human.
The nature of data set [24]: Binding to alpha-glycoprotein. It is filed as ADME. Conditions: human, read-out: PPB (converted).
Data set [25] can be described thus: Dissociation constant, pKa of the compound. It is filed as physicochemical.

The compound `O=C(c1ccc(Br)cc1NS(=O)(=O)c1cccc2nsnc12)N1CCCCC1` yielded a concentration in the data set listed under Rattus norvegicus [1] of 1300 nM. The results for the remaining at 0.5 h in data set [2] and in data set [4] were 15% and 8%, respectively. Further, the Kb in [3] was over 10 µM. Also, the values for the pKb (in [3]; in the data set filed under Cavia porcellus) were under 5 and 8.8, respectively. For the same compound, the clearance in [5] and in [8] was 11.7 mL/min/kg each time. Also, the results for the half-life in data set [6] and in data set [9] were 15.6 min and 25.2 min, respectively. The bioavailability turned out to be 68% in data set [7] and 33% in data set [10]. The compound also returned an ED50 in the data set with Rattus norvegicus [11] of 0.6 mg/kg/h. The Ki in data set [12] is over 10 µM.
For the compound `O=C(c1ccc(Cl)cc1NS(=O)(=O)c1cccc2nsnc12)N1CCCCC1`, the Ki in data set [13] is 0.0398 µM; in [12], over 10 µM. Also, the logD in [14] turned out to be 2.1. Also, the remaining at 0.25 h in [15] was 19%; in data set [16], 69%; in data set [18] it was 78%; in data set [20], 78%. Further, the remaining at 0.5 h in data set [2] was determined as 3.9%; in [17] it was 51%; in [19], 62%; in [21], 59%. In addition, the Papp in the data set on Caco-2 [22] was found to be 1.8 ×10⁻⁶ cm/s; in the data set on Caco-2 [23], 22.7 ×10⁻⁶ cm/s. In addition, in data set [24], the fraction unbound was 0.23. Moreover, the pKa in [25] amounted to 5.47. This compound also had a Kb in data set [3] of over 10 µM. Moreover, the pKb in [3] was under 5; in the data set listed under Cavia porcellus, 8.49. This compound showed a clearance in [5] of 20.8 mL/min/kg. Also, the half-life in data set [6] is 9.6 min. This compound also registered a bioavailability in data set [7] of 42%.
